Test results taken from patent publication US6608082B1, “Treatment of erectile dysfunction using isoquinoline compound melanocortin receptor ligands” (Lion Bioscience AG, priority 1998, dated 2003).

Columns and labels:
[1] = test system: IL-10; test: Increasing levels of IL-10 in mice (plasma ELISA); type: in vivo; conditions: mouse plasma, 90 or 105 minutes
Procedure: Isoquinoline compounds were administered intraperitoneally to mice in doses of 30, 100 or 300 μg/mouse or orally in doses of 300 or 600 μg/mouse. Levels of IL-10 were measured 90 or 105 minutes after administration as indicated. Samples were collected and diluted, when appropriate, as described in Example VI. A 100 μl sample of plasma was assayed by ELISA for IL-10. Briefly, ELISA plates were coated with rat anti-mouse IL-10 monoclonal antibody (Pharmingen; San Diego Calif.). Samples or known concentrations of IL-10 were added to the coated plates and incubated for 2 hr at 37° C. Plates were washed and incubated with biotinylated rat anti-mouse IL-10 (R&D Systems; Minneapolis Minn.) for 1 hr at 37° C. Plates were washed and incubated with streptavidin-HRP 30 min at 37° C., and HRP activity was detected with hydrogen peroxide and TMB using standard immunoassay procedures.

[2] = target: T1, MCR-1 (Homo sapiens, UniProt Q01726); test: Melanocortin receptor binding assay, competition with 125I-HP 467, HEK 293 cells expressing hMCR-1
T1 construct: expressed in transfected cells; host or cells: HEK 293
In short: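 Intact-cell competition binding, 2.5 hr at 37 °C, in PBS/10% calf serum/1 mM CaCl2; hMCR-4 cells at 4×10^3 per tube, hMCR-1 cells at 2×10^4 per tube. Filtration on BSA/CaCl2-soaked GF/B, cold 50 mM Tris pH 7.4 washes, scintillation count.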

[3] = target: T1, MCR-1; test: cAMP assay for melanocortin receptors, HEK 293 cells expressing MCR-1; type: cell-based
Procedure: HEK 293 cells expressing MCR-1, MCR-3, MCR-4 and MCR-5 were used (see Example II). Cells were plated at 20,000 cells per well in a 96-well plate coated with collagen. The next day, cells were pretreated with 75 μl of 0.4 mM 3-isobutyl-1-methylxanthine (IBMX) in low serum medium containing DMEM, 25 mM HEPES, non-essential amino acids, vitamins, 100 units/ml penicillin, 100 μg/ml streptomycin and 0.1% COSMIC CALF SERUM. IBMX is an inhibitor of cAMP phosphodiesterase. The pretreatment was carried out for 10 min at 37° C.
Following pretreatment, 25 μl of diluted isoquinoline compound was added to the wells, and cells were incubated for 15 min at 37° C. Cells were lysed by adding 25 μl saponin lysis buffer and incubating 2 to 5 min. Plates were covered and stored at −20° C.
cAMP concentration was determined by ELISA. Briefly, 96 well ELISA plates were coated with goat anti-cAMP antibody in PBS for 12 to 72 hr at 4° C. 50 μl of sample was mixed with 50 μl of cAMP ELISA buffer containing 1% bovine serum albumin, 10% heat-inactivated donor horse serum, 1% normal mouse serum and 0.05% TWEEN-20 in PBS, and the diluted sample was added to the coated ELISA plate. Standards of known concentrations of cAMP were added to separate wells. 25 μl of 16 ng/ml cAMP-conjugated horse radish peroxidase (HRP) (cAMP-HRP) was added to each well, and the plates were […] at room temperature. Plates were washed and the binding of cAMP-HRP was detected with 3,3′,5,5′-tetramethylbenzidine (TMB) and hydrogen peroxide using standard immunoassay procedures.
Various isoquinoline compounds were tested for their ability to activate MC receptor by measuring cAMP as described in Example III.

T1 sequence (Q01726 whole entry): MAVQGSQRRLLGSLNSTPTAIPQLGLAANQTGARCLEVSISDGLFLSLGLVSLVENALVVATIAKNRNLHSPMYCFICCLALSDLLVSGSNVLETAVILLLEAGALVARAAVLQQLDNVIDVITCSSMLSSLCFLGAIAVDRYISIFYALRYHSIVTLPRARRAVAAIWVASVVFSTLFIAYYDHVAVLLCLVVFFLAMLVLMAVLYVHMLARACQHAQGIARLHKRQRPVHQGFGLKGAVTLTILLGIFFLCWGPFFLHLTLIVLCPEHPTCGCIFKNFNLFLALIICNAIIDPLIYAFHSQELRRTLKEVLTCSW

- IC50 ([2]; competition with 125I-HP 467, HEK 293 cells expressing MCR-1, read-out: MC-1 IC50): 100 nM
- EC50 ([3]; 50% of maximal cAMP production, read-out: MC-1 EC50 (cAMP)): 870 nM
- MC-1 Max (pmole) cAMP produced ([3]; maximum amount of cAMP): 170 pmol
SMILES: CCCCNc1ccc(C2C(CNC3CCCCC3)c3ccccc3CN2CCCCC(CN)NC)cc1 (centres unmarked) [TRG 2409-14]
- % IL-10 Induction, IP 30 ([1]; IP, 30 μg per mouse): −27 ± 8%
- % IL-10 Induction, IP 300 ([1]; IP, 300 μg per mouse): 150 ± 50 %
- % IL-10 Induction, Oral 300 ([1]; Oral, 300 μg per mouse): 79 ± 29%
- % IL-10 Induction, Oral 600 ([1]; Oral, 600 μg per mouse): 193 ± 50 %
- effectiveness as MC receptor ligand ([2]; binding to MC receptors, Table 1): particularly effective MC receptor ligands
